In patent US9901097B2, “Agricultural and horticultural fungicidal composition” (Nippon Soda Co., Ltd., priority 2011, dated 2018):

Tested on: Botrytis cinerea
Assay: Sterilization test (growth inhibition of Botrytis cinerea in potato dextrose medium, 96-well microplate, turbidity 405 nm)
Assay type: cell-based
Details: for inhibition at 2 ppm / inhibition at 10 ppm / inhibition at 0.4 ppm / inhibition at 0.08 ppm / inhibition at 0.02 ppm: Botrytis cinerea, read-out: Growth inhibition rate; for inhibition at 0.4 ppm: drug II alone 0.4 ppm; for inhibition at 0.02 ppm: drug II alone 0.02 ppm
Description: The solutions thus obtained were mixed to prepare fungicidal compositions.
Conidia of Botrytis cinerea were added to and dispersed in a potato dextrose culture medium. A fungicidal composition was added thereto and mixed. This was dispensed in a 96-well microplate and cultured at 20° C. for 3 days in a dark setting. Then, the turbidity was measured at a wavelength of 405 nm in a microplate reader. From comparison with the measured value of turbidity in the case of non-treatment (without the addition of the fungicidal composition), the growth inhibition rate of Botrytis cinerea (%) was calculated. The test was carried out in duplicate. Further, the expected value of the growth inhibition was calculated based on Colby's equation.
In addition, the Colby's equation is E=M+N−MN/100. Here, E is the expected value of a growth inhibition rate (%), M is the growth inhibition rate (%) calculated from the measurement with the use of the drug I alone, and N is the growth inhibition rate (%) calculated from the measurement with the use of the drug II alone. Additionally, in Tables, the expected values with the use of the drug alone were not shown, because they were the same as the values calculated from the measurement.
At the concentrations shown in Tables 6 to 8, the drug I and the drug II were dissolved separately in dimethyl sulfoxide. The obtained solution was mixed to prepare a fungicidal composition.
Using the same methods as in Example 1 and Comparative Example 1, the sterilization test was carried out. Additionally, in Tables, the expected values with the use of the drug alone were not shown, because they were the same as the values calculated from the measurement.

[1] = Example 1 (Tables 1-5), drug II alone 2 ppm
[2] = Example 1 (Tables 1-5), drug II alone 10 ppm
[3] = Example 1 (Tables 1-5), drug II alone 0.08 ppm

C[C@@]1(c2ccc(Oc3ccccc3)cc2)OC(=O)N(Nc2ccccc2)C1=O (racemic) [Drug 9, Famoxadone]
inhibition at 2 ppm [1]: 0%

COCC(=O)N(c1c(C)cccc1C)C(C)C(=O)OC (centres unmarked) [Drug 6, Metalaxyl]
inhibition at 10 ppm [2]: 0%

CCNC(=O)NC(=O)/C(C#N)=N/OC [Drug 7, Cymoxanil]
inhibition at 2 ppm [1]: 0%

CC(C)OC(=O)N[C@H](C(=O)N[C@H](C)c1nc2ccc(F)cc2s1)C(C)C [Drug 8, Benthiavalicarb-isopropyl]
inhibition at 10 ppm [2]: 0%

CCCCCCCCc1c(CC)nc2ncnn2c1N [Drug 10, Ametoctradin]
Growth inhibition rate [2]: 0%

O=C(NCc1ncc(C(F)(F)F)cc1Cl)c1c(Cl)cccc1Cl [Drug 11, Fluopicolide]
Growth inhibition rate [2]: 6%

CCC(C)(NC(=O)c1cc(Cl)c(C)c(Cl)c1)C(=O)CCl (centres unmarked) [Drug 12, Zoxamide]
inhibition at 0.4 ppm (Example 1 (Tables 1-5)): 3%

CCO[PH](=O)O [Drug 13, Fosetyl]
inhibition at 0.08 ppm [3]: 2%

Cc1ccc(-c2c(Cl)nc(C#N)n2S(=O)(=O)N(C)C)cc1 [Drug 14, Cyazofamid]
inhibition at 10 ppm [2]: 0%

CCCOc1nc2ccc(I)cc2c(=O)n1CCC [Drug 15, Proquinazid]
Growth inhibition rate [2]: 0%

COc1cc(C)c(C(=O)c2c(OC)ccc(Br)c2C)c(OC)c1OC [Drug 16, Metrafenone]
inhibition at 10 ppm [2]: 0%

Fc1ccc(Oc2ccnc3cc(Cl)cc(Cl)c23)cc1 [Drug 17, Quinoxifen]
Growth inhibition rate [1]: 0%

CC(C)Oc1cccc(NC(=O)c2ccccc2C(F)(F)F)c1 [Drug 18, Flutolanil]
inhibition at 10 ppm [2]: 0%

Cc1c(Cl)cc(-c2ccc(=O)[nH]n2)cc1Cl [Drug 19, Diclomezin]
Growth inhibition rate [2]: 0%

N#Cc1c[nH]cc1-c1cccc2c1OC(F)(F)O2 [Drug 20, Fludioxonil]
inhibition at 0.02 ppm (Example 1 (Tables 1-5)): 39%

CC1COC(Cn2cncn2)(c2ccc(Oc3ccc(Cl)cc3)cc2Cl)O1 (centres unmarked) [Drug 21, Difenoconazole]
inhibition at 0.4 ppm (Example 1 (Tables 1-5)): 36%

CC(C)(C)C(O)(CCc1ccc(Cl)cc1)Cn1cncn1 (centres unmarked) [Drug 22, Tebuconazole]
inhibition at 0.08 ppm [3]: 34%

CC1=C(C(=O)Nc2ccccc2)SCCO1 [Drug 23, Carboxin]
inhibition at 0.4 ppm (Example 1 (Tables 1-5)): 0%

CN(C)C(=S)SSC(=S)N(C)C [Drug 24, Thiram]
inhibition at 0.08 ppm [3]: 30%

N#Cc1c(Cl)c(Cl)c(Cl)c(C#N)c1Cl [Drug 25, Chlorothalonil]
inhibition at 0.08 ppm [3]: 4%

CON=C(C(=O)OC)c1ccccc1CON=C(C)c1cccc(C(F)(F)F)c1 [Drug 26, Trifloxystrobin]
inhibition at 0.08 ppm [3]: 32%

CO/C=C(/C(=O)OC)c1ccccc1Oc1cc(Oc2ccccc2C#N)ncn1 [Drug 27, Azoxystrobin]
Growth inhibition rate [3]: 30%

CO/N=C(/C(=O)OC)c1ccccc1COc1ccccc1C [Drug 28, Kresoxim-methyl]
inhibition at 0.08 ppm [3]: 20%

O=C(NCCc1ncc(C(F)(F)F)cc1Cl)c1ccccc1C(F)(F)F [Drug 30, Fluopyram]
inhibition at 0.08 ppm [3]: 16%

O=[N+]([O-])c1cc(C(F)(F)F)c(Cl)c([N+](=O)[O-])c1Nc1ncc(C(F)(F)F)cc1Cl [Drug 31, Fluazinam]
inhibition at 0.02 ppm (Example 1 (Tables 1-5)): 20%

O=C1C2CC=CCC2C(=O)N1SC(Cl)(Cl)Cl (centres unmarked) [Drug 33, Captan]
inhibition at 0.02 ppm (Example 1 (Tables 1-5)): 28%

Cc1cc(C2CC2)nc(Nc2ccccc2)n1 [Drug 34, Cyprodinil]
inhibition at 0.02 ppm (Example 1 (Tables 1-5)): 0%

COP(=S)(OC)Oc1c(Cl)cc(C)cc1Cl [Drug 35, Tolclofos-methyl]
inhibition at 10 ppm [2]: 35%

CC(C)NC(=O)N1CC(=O)N(c2cc(Cl)cc(Cl)c2)C1=O [Drug 36, Iprodione]
inhibition at 0.4 ppm (Example 1 (Tables 1-5)): 39%

O=C1c2ccccc2C(=O)N1SC(Cl)(Cl)Cl [Drug 37, Folpet]
inhibition at 0.02 ppm (Example 1 (Tables 1-5)): 10%

Cc1cc(C(F)(F)F)nn1CC(=O)N1CCC(c2nc(C(=O)N(C)C3CCCc4ccccc43)cs2)CC1 (centres unmarked) [Drug 39]
inhibition at 10 ppm [2]: 13%

CNC(=O)/C(=N/OC)c1ccccc1CO/N=C(C)/C(=N/OC)C(/C)=N/OC [Drug 40, Orysastrobin]
Growth inhibition rate (Example 2 (Tables 6-8), drug II alone 10 ppm): 58%
